Assay results taken from ChEMBL document CHEMBL1129123, “Drupangtonine, a novel antileukemic alkaloid from Cephalotaxus harringtonia var. drupacea” (Bioorg Med Chem Lett, 1996).
Values after ≈ are worked out from the molar mass of the structure shown.

What follows are molecules tested on P388 (assay: Antileukemic activity against P-388 leukemia cells.). Conditions: Mus musculus.
Assay type: functional, cell-based

SMILES | IC50 [µg/mL]
COC(=O)C[C@](O)(CCC(C)C)C(=O)O[C@H]1[C@H]2c3cc4c(cc3[C@H]3CN5CCC[C@]25C[C@]1(OC)O3)OCO4 | 0.007 (≈ 0.0132 µM)
COC(=O)C[C@](O)(CCC(C)C)C(=O)O[C@@H]1C(OC)=CC23CCCN2CCc2cc4c(cc2[C@H]13)OCO4 (single isomer, unassigned) [DEOXYHARRINGTONINE] | 0.0075 (≈ 0.0145 µM)
COC(=O)C[C@](O)(CCC(C)(C)O)C(=O)O[C@@H]1C(OC)=CC23CCCN2CCc2cc4c(cc2[C@H]13)OCO4 (single isomer, unassigned) [HARRINGTONINE] | 0.032 (≈ 0.0602 µM)
COC(=O)C[C@](O)(CCCC(C)(C)O)C(=O)O[C@@H]1C(OC)=CC23CCCN2CCc2cc4c(cc2[C@H]13)OCO4 (single isomer, unassigned) [OMACETAXINE MEPESUCCINATE] | 0.017 (≈ 0.0312 µM)
